# Experimental data from patent US6380463B1, “Inducible herbicide resistance” (priority 1995, dated 2002).
# Experiments:
# alcA/alcR system [1] = experiment: non-solvent chemical treatments, induction of the alcA/alcR switch; type: in vivo; settings: non-solvent chemical treatment
# [2] = tested on: Brassica napus var Westar; experiment: kill curve on glyphosate, oil seed rape growing tip plus two leaves in MS medium; type: in vivo
# Experimental: (§1) Kill Curves for Tobacco var Samsun and Brassica napus var Westar on glyphosate
# (§2) Both species were tested on a range of glyphosate concentrations by inserting, in the case of tobacco a 5-6 mm stem segment carrying a leaf node and in the case of oil seed rape the growing tip plus two leaves into MS medium containing glyphosate at […] glyphosate isopropylamine salt.
# Tobacco var Samsun = experiment: kill curve on glyphosate, tobacco stem segment in MS medium; type: in vivo
# Experimental: as §1, §2
# [3] = tested on: 5-enol-pyruvylshikimate-3-phosphate (EPSP) synthase; experiment: EPSPS assay in plant extracts (14C-labelled phosphoenol pyruvate, HPLC); type: biochemical
# Experimental: Assays for 5-enol-pyruvylshikimate-3-phosphate (EPSP) synthase activity in plant extracts were carried out (1) by following the disappearance of the phosphoenol pyruvate substrate (as described by Rubin, J. L., Gaines, C. G and Jensen, R. A., in Plant Physiol (1984 75, 839-845) or (2) by conducting the assay in the reverse direction and coupling to pyruvate kinase and lactate dehydrogenase (as described by Mousdale D. M. and Coggins J. R. in Planta (1984) 160, 78-83) or (3) by using 14(-labelled phosphoenol pyruvate as substrate and detecting the formation of radioactive EPSP by HPLC on an anion exchange column and detecting using a flow-through radioactivity detector as described by Della-Cioppa et al in Proc. Nat. Acad. Sci. (USA) (1986), 83, 6873-6877.
# alcA/alcR system [4] = experiment: hydroponic seedling system (root drenching), induced reporter gene expression; type: in vivo; settings: FIG. 2
# Excerpt: (§3) 3. We have tested the specificity of alcA/alcR system with a range of solvents used in agronomic practice.
# alcA/alcR system [5] = settings: applied as a foliar spray, FIG. 3
# Excerpt: as §3
# FIG. 3 illustrates the levels of induced reporter gene activity when the chemicals listed in Table 1 were applied as a foliar spray;
compound,measurement,setting,value
C=C [ethylene],induction of the alcA/alcR system,alcA/alcR system [1],failed to induce
O=C(O)c1ccccc1O [salicylic acid],induction of the alcA/alcR system,alcA/alcR system [1],failed to induce
auxin,induction of the alcA/alcR system,alcA/alcR system [1],failed to induce
CC1=CC(=O)CC(C)(C)C1(O)/C=C/C(C)=C\C(=O)O (stereo not shown) [absisic acid],induction of the alcA/alcR system,alcA/alcR system [1],failed to induce
"O=C(O)CNCP(=O)(O)O [glyphosate, N-phosphonomethyl-glycine]",growth scored after two weeks,[2]; 0.005 mM in MS medium,"No stem growth, 1 new leaf, roots to 1 cm"
same,growth scored after two weeks,[2]; 0.011 mM in MS medium,"No stem growth, no new leaves, roots ˜ 0.5 cm"
same,growth scored after two weeks,[2]; 0.0275 mM in MS medium,"No stem growth, no new leaves, roots ˜ 2 mm"
same,growth scored after two weeks,[2]; 0.055 mM in MS medium,"No growth in any organ, ends of stem blackened"
same,growth scored after two weeks,Tobacco var Samsun; 0.005 mM in MS medium,No growth
same,growth scored after two weeks,Tobacco var Samsun; 0.01 mM in MS medium,No growth
same,growth scored after two weeks,Tobacco var Samsun; 0.011 mM in MS medium,No growth
same,growth scored after two weeks,Tobacco var Samsun; 0.0275 mM in MS medium,No growth
same,growth scored after two weeks,Tobacco var Samsun; 0.055 mM in MS medium,No growth
same,inhibition of EPSP synthase activity,[3],relatively resistant to inhibition
CCC(C)O (stereo not shown) [butan-2-ol],levels of induced reporter gene expression,alcA/alcR system [4],high levels of induced reporter gene expression
O=C1CCCCC1 [cyclohexanone],levels of induced reporter gene expression,alcA/alcR system [4],high levels of induced reporter gene expression
C=C1C[C@]23C[C@@]1(O)CC[C@H]2[C@@]12C=C[C@H](O)[C@@](C)(C(=O)O1)[C@H]2[C@@H]3C(=O)O [gibberelic acid],induction of the alcA/alcR system,alcA/alcR system [1],failed to induce
CCO [ethanol],levels of induced reporter gene activity,alcA/alcR system [5],high levels of induced reporter gene activity
same,levels of induced reporter gene expression,alcA/alcR system [4],high levels of induced reporter gene expression
